According to patent US20050070460A1 (priority 2003, published 2005):

What was measured:
[1] = tested on: Influenza A/Panama/2007/99 (H3N2); assay: microbe, parasite or virus in culture; conditions: H3N2, MDCK
[2] = tested on: Influenza A/Panama/2007/99 (H3N2)
[3] = tested on: Influenza A/New Calcdonia/20/99 (H1N1); assay: microbe, parasite or virus in culture; conditions: H1N1, MDCK
[4] = tested on: MDCK cells; conditions: Influenza A (H1N1) test
[5] = in vitro; conditions: dog
[6] = tested on: Influenza A/New Calcdonia/20/99 (H1N1)
[7] = tested on: Human coronavirus (HcoV), strain OC43
[8] = tested on: Severe acute respiratory syndrome (SARS) coronavirus, strain Urbani
[9] = tested on: humanized, non-lethal influenza virus; assay: Viral titers in rats after intranasal pre-infection treatment and influenza challenge; assay type: in vivo, Fisher 344 rats; conditions: intranasal administration prior to infection, 24 hours after the infection, compared also to IFN-α pretreatment
[10] = tested on: Severe acute respiratory syndrome (SARS) coronavirus, strain Urbani; assay: microbe, parasite or virus in culture; conditions: Severe acute respiratory syndrome-related coronavirus, Vero 76, SARS, Vero 76 cells; PBMC supernatant = indirect, IRM in media = direct
[11] = tested on: Human coronavirus (HcoV), strain OC43; assay: microbe, parasite or virus in culture; conditions: unidentified human coronavirus, OC43, BSC-1
[12] = in vitro; conditions: African green monkey

Row | SMILES | EC50 [1] | SI (CC50/EC50) [2] | EC50 [3] | CC50 [4] | CC50 [5] | SI (CC50/EC50) [6] | SI (CC50/EC50) [7] | SI (CC50/EC50) [8] | antiviral activity (in words) [8] | viral titer present in the lung [9] | viral titer present in the nasal cavity [9] | EC50 [10] | EC50 [11] | CC50 [12]
1 | NC(=O)c1ncn([C@@H]2O[C@H](CO)[C@@H](O)[C@H]2O)n1 [Ribavirin, ribavirin, reference compound] | 24 µM | >19 | 14 µM | > 450 µM | > 450 µM | >32 | – | – | – | – | – | – | – | –
2 | CCOCc1nc2c(N)nc3ccccc3c2n1CC(C)(C)NS(C)(=O)=O [IRM, N-{2-[4-amino-2-(ethoxymethyl)-1H-imidazo[4,5-c]quinolin-1-yl]-1,1-dimethylethyl}methanesulfonamide] | > 300 µM | 0 | > 300 µM | > 300 µM | > 300 µM | 0 | 0 | 50 | significant direct activity | dramatically reduced | dramatically reduced | ~3 µM | > 150 µM | > 150 µM
